Data: patent publication US10986838B2, “Herbicides” (SYNGENTA PARTICIPATIONS AG, priority 2016, dated 2021)

Key:
Format in all cases: in vivo
[1] = system: Triticum aestivium (TRZAW); assay: Pre-emergence herbicidal activity (B1); settings: Test 1a, 1000 g/ha, evaluated after 13 days, 5=total damage to plant, 0=no damage to plant
Description: (§1) B1 Pre-Emergence Herbicidal Activity Seeds of a variety of test species were sown in standard soil in pots: Triticum aestivium (TRZAW), Avena fatua (AVEFA), Alopecurus myosuroides (ALOMY), Echinochloa crus-galli (ECHCG), Lolium perenne (LOLPE), Zea Mays (ZEAMX), Abutilon theophrasti (ABUTH), Amaranthus retroflexus (AMARE) and Setaria faberi (SETFA). After cultivation for one day (pre-emergence) under controlled conditions in a glasshouse (at 24/16° C., day/night; 14 hours light; 65% humidity), the plants were sprayed with an aqueous spray solution derived from the formulation of the technical active ingredient in acetone/water (50:50) solution containing 0.5% Tween 20 (polyoxyethelyene sorbitan monolaurate, CAS RN 9005-64-5). The test plants were then grown in a glasshouse under controlled conditions (at 24/16° C., day/night; 14 hours light; 65% humidity) and watered twice daily. After 13 days, the test was evaluated (5=total damage to plant; 0=no damage to plant). Tables B1a and B1b Control of Weed Species by Compound of Formula (I) after Pre-Emergence Application

Setaria faberi (SETFA) [2] = assay: Pre-emergence herbicidal activity (B1); settings: 1000 g/ha, evaluated after 13 days, 5=total damage to plant, 0=no damage to plant
Description: as §1

[3] = system: Echinochloa crus-galli (ECHCG); assay: Pre-emergence herbicidal activity (B1); settings: 1000 g/ha, evaluated after 13 days, 5=total damage to plant, 0=no damage to plant
Description: as §1

Avena fatua (AVEFA) [4] = assay: Pre-emergence herbicidal activity (B1); settings: Test 1a, 1000 g/ha, evaluated after 13 days, 5=total damage to plant, 0=no damage to plant
Description: as §1

Lolium perenne (LOLPE) [5] = assay: Pre-emergence herbicidal activity (B1); settings: 1000 g/ha, evaluated after 13 days, 5=total damage to plant, 0=no damage to plant
Description: as §1

[6] = system: Alopecurus myosuroides (ALOMY); assay: Pre-emergence herbicidal activity (B1); settings: Test 1a, 1000 g/ha, evaluated after 13 days, 5=total damage to plant, 0=no damage to plant
Description: as §1

[7] = system: Triticum aestivium (TRZAW); assay: Post-emergence herbicidal activity (B2); settings: Test B2a, 1000 g/ha, evaluated after 13 days, 5=total damage to plant, 0=no damage to plant
Description: (§2) B2 Post-Emergence Herbicidal Activity Seeds of a variety of test species were sown in standard soil in pots: Triticum aestivium (TRZAW), Avena fatua (AVEFA), Alopecurus myosuroides (ALOMY), Echinochloa crus-galli (ECHCG), Lolium perenne (LOLPE), Zea Mays (ZEAMX), Abutilon theophrasti (ABUTH), Amaranthus retroflexus (AMARE) and Setaria faberi (SETFA). After 8 days cultivation (post-emergence) under controlled conditions in a glasshouse (at 24/16° C., day/night; 14 hours light; 65% humidity), the plants were sprayed with an aqueous spray solution derived from the formulation of the technical active ingredient in acetone/water (50:50) solution containing 0.5% Tween 20 (polyoxyethelyene sorbitan monolaurate, CAS RN 9005-64-5). The test plants were then grown in a glasshouse under controlled conditions (at 24/16° C., day/night; 14 hours light; 65% humidity) and watered twice daily. After 13 days, the test was evaluated (5=total damage to plant; 0=no damage to plant). Tables B2a and B2b Control of Weed Species by Compound of Formula (I) after Post-Emergence Application

Setaria faberi (SETFA) [8] = assay: Post-emergence herbicidal activity (B2); settings: 1000 g/ha, evaluated after 13 days, 5=total damage to plant, 0=no damage to plant
Description: as §2

[9] = system: Echinochloa crus-galli (ECHCG); assay: Post-emergence herbicidal activity (B2); settings: 1000 g/ha, evaluated after 13 days, 5=total damage to plant, 0=no damage to plant
Description: as §2

Avena fatua (AVEFA) [10] = assay: Post-emergence herbicidal activity (B2); settings: Test B2a, 1000 g/ha, evaluated after 13 days, 5=total damage to plant, 0=no damage to plant
Description: as §2

Lolium perenne (LOLPE) [11] = assay: Post-emergence herbicidal activity (B2); settings: 1000 g/ha, evaluated after 13 days, 5=total damage to plant, 0=no damage to plant
Description: as §2

[12] = system: Alopecurus myosuroides (ALOMY); assay: Post-emergence herbicidal activity (B2); settings: Test B2a, 1000 g/ha, evaluated after 13 days, 5=total damage to plant, 0=no damage to plant
Description: as §2

Zea Mays (ZEAMX) [13] = assay: Pre-emergence herbicidal activity (B1); settings: Test 1b, 1000 g/ha, evaluated after 13 days, 5=total damage to plant, 0=no damage to plant
Description: as §1

[14] = system: Abutilon theophrasti (ABUTH); assay: Pre-emergence herbicidal activity (B1); settings: Test 1b, 1000 g/ha, evaluated after 13 days, 5=total damage to plant, 0=no damage to plant
Description: as §1

[15] = system: Amaranthus retroflexus (AMARE); assay: Pre-emergence herbicidal activity (B1); settings: Test 1b, 1000 g/ha, evaluated after 13 days, 5=total damage to plant, 0=no damage to plant
Description: as §1

Zea Mays (ZEAMX) [16] = assay: Post-emergence herbicidal activity (B2); settings: Test B2b, 1000 g/ha, evaluated after 13 days, 5=total damage to plant, 0=no damage to plant
Description: as §2

[17] = system: Abutilon theophrasti (ABUTH); assay: Post-emergence herbicidal activity (B2); settings: Test B2b, 1000 g/ha, evaluated after 13 days, 5=total damage to plant, 0=no damage to plant
Description: as §2

[18] = system: Amaranthus retroflexus (AMARE); assay: Post-emergence herbicidal activity (B2); settings: Test B2b, 1000 g/ha, evaluated after 13 days, 5=total damage to plant, 0=no damage to plant
Description: as §2

SMILES | SETFA damage score (Setaria faberi (SETFA) [2]; Test 1a) | ECHCG damage score ([3]; Test 1a) | AVEFA damage score (Avena fatua (AVEFA) [4]) | LOLPE damage score (Lolium perenne (LOLPE) [5]; Test 1a) | ALOMY damage score [6] | TRAZW damage score [7] | SETFA damage score (Setaria faberi (SETFA) [8]; Test B2a) | ECHCG damage score ([9]; Test B2a) | ZEAMX damage score (Zea Mays (ZEAMX) [13]) | ABUTH damage score [14] | SETFA damage score (Setaria faberi (SETFA) [2]; Test 1b) | ECHCG damage score ([3]; Test 1b) | LOLPE damage score (Lolium perenne (LOLPE) [5]; Test 1b) | AMARE damage score [15] | ZEAMX damage score (Zea Mays (ZEAMX) [16]) | ABUTH damage score [17] | SETFA damage score (Setaria faberi (SETFA) [8]; Test B2b) | ECHCG damage score ([9]; Test B2b) | LOLPE damage score (Lolium perenne (LOLPE) [11]; Test B2b) | AMARE damage score [18] | other results
CNc1ccc(-c2cncc(C#N)c2)nc1C(F)(F)F [Compound A1] | 4 | 1 | 1 | 1 | 0 | 2 | 5 | 3 | – | – | – | – | – | – | – | – | – | – | – | – | TRAZW damage score [1]: 0; AVEFA damage score (Avena fatua (AVEFA) [10]): 3; LOLPE damage score (Lolium perenne (LOLPE) [11]; Test B2a): 2; ALOMY damage score [12]: 0
N#Cc1cncc(-c2ccc(N)c(C(F)(F)F)n2)c1 [Compound A2] | 4 | 2 | 0 | 1 | 0 | 0 | 5 | 4 | – | – | – | – | – | – | – | – | – | – | – | – | TRAZW damage score [1]: 0; AVEFA damage score (Avena fatua (AVEFA) [10]): 3; LOLPE damage score (Lolium perenne (LOLPE) [11]; Test B2a): 2; ALOMY damage score [12]: 1
Nc1ccc(-c2cncc(Cl)c2)nc1C(F)(F)F [Compound A3] | 5 | 3 | 1 | 1 | 0 | 0 | 4 | 3 | – | – | – | – | – | – | – | – | – | – | – | – | TRAZW damage score [1]: 0; AVEFA damage score (Avena fatua (AVEFA) [10]): 3; LOLPE damage score (Lolium perenne (LOLPE) [11]; Test B2a): 2; ALOMY damage score [12]: 1
CC#CCNc1ccc(-c2cncc(F)c2)nc1C(F)(F)F [Compound A30] | – | – | – | – | – | – | – | – | 5 | 0 | 5 | 4 | 2 | 2 | 5 | 2 | 5 | 5 | 4 | 2 | –
Fc1ccc(CNc2ccc(-c3cncc(F)c3)nc2C(F)(F)F)cc1 [Compound A31] | – | – | – | – | – | – | – | – | 4 | 1 | 5 | 4 | 2 | 1 | 5 | 0 | 5 | 4 | 3 | 1 | –
Fc1cncc(-c2ccc(Nc3ccccc3)c(C(F)(F)F)n2)c1 [Compound A32, 6-(5-fluoro-3-pyridyl)-N-phenyl-2-(trifluoromethyl)pyridin-3-amine] | – | – | – | – | – | – | – | – | 1 | 1 | 5 | 4 | 1 | 1 | 4 | 0 | 5 | 4 | 3 | 0 | –
Nc1ccc(-c2cncc(F)c2)nc1C(F)(F)F [Compound A33, 6-(5-fluoro-3-pyridyl)-2-(trifluoromethyl)pyridin-3-amine] | – | – | – | – | – | – | – | – | 4 | 0 | 4 | 2 | 2 | 1 | 5 | 1 | 5 | 3 | 3 | 2 | –
CNc1ccc(-c2cncnc2)nc1C(F)(F)F [Compound A34] | – | – | – | – | – | – | – | – | 4 | 0 | 4 | 4 | 3 | 1 | 5 | 1 | 5 | 5 | 3 | 2 | –
Nc1ccc(-c2cncnc2)nc1C(F)(F)F [Compound A35, 6-pyrimidin-5-yl-2-(trifluoromethyl)pyridin-3-amine] | – | – | – | – | – | – | – | – | 5 | 0 | 4 | 3 | 2 | 1 | 5 | 1 | 5 | 4 | 4 | 2 | –
Cc1nc(-c2cccnc2)ccc1N [Compound A36] | – | – | – | – | – | – | – | – | 0 | 1 | 1 | 0 | 0 | 1 | 2 | 0 | 2 | 1 | 1 | 1 | –
Fc1cncc(-c2ccc(NC3CCCCC3)c(C(F)(F)F)n2)c1 [Compound A45] | 4 | 3 | 1 | 0 | 0 | 0 | 4 | 2 | – | – | – | – | – | – | – | – | – | – | – | – | AVEFA damage score (Avena fatua (AVEFA) [10]): 2; LOLPE damage score (Lolium perenne (LOLPE) [11]; Test B2a): 1; ALOMY damage score [12]: 0
